# Entries after “also recorded” stand apart in the source; their conditions may differ.
# Test system: mold
# Experiment: Inhibition of mold growth in a polish applied to a mitt
# Format: cell-based
# Settings: chemical added to base polish (Pedag Deluxe Cream Polish), samples compared with each other
# Text: In each of the following Examples, a polish was applied to a mitt. The base polish was provided by Pedag USA, Inc. (Seattle) under the trade name Deluxe Cream Polish. […] The second sheet layer was constructed of a high-loft spunbond web of bicomponent polypropylene/polyethylene fibers with a side-by-side orientation laminated to a film of high density polyethylene on the inside surface. […] The first sheet layer and the second sheet layer were ultrasonically bonded leaving an opening for the insertion of two fingers (such as at seams 16 of FIGS. 1-3). Several different chemicals were tested to determine their ability to inhibit mold growth in a polish that has been applied to a mitt. For example, chloroacetamide, polyaminopropyl biguanide available under the name Cosmocil CQ from ICI Americas Inc., organosilicone quaternary ammonium compound available under the name AEM 5700 from Dow Chemical by Aegis Environmental Management (Midland, Mich.), a combination of combination of isothiazolones and N-/O-formals available under the name Parmetol DF35 from Schulke & Mayr, and methylparaben were each added to a base polish sample. The resulting polish samples were then applied to mitts. The ability of the polish to inhibit mold growth for each sample was then compared.
row,SMILES,ability of the polish to inhibit mold growth
1,COC(=O)c1ccc(O)cc1 [methylparaben],inhibited growth of mold better than the other tested chemicals; also recorded: best results of all samples
2,CCC(=O)O [propanoic acid],inhibited growth of mold better than the other tested chemicals

# — patent publication US7979946B2, “Polish and polishing mitts” (Kimberly-Clark Worldwide, Inc., priority 2006, dated 2011)
